Source: PubChem BioAssay AID2060330 (Molecular Pharmacology Branch, DTP, NCI, 2025)
pIC50: −log10 of the molar value.

Test system: LG0703-F948-PDC spheroids with HUVEC/MSC, viability
Test: Anticancer human tumor LG0703-F948-PDC patient-derived lung adenocarcinoma cell line growth inhibition [IpAb]
Conditions: for pIC50: curve of first compound; for viability, T/C: stronger effect = lower value; active = viability on the fitted dose curve at most 10% of control; inactive = the rest
Outline: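 Combinations with ipatasertib or abemaciclib were tested on tumour spheroids holding HUVEC (25%) and MSC (15%) alongside 60% malignant cells. Top concentration was at or near clinical Cmax (10 microM if undefined), descending in half-log steps.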

[1] = second compound 0.1 µM, first compound 0.0316 µM
[2] = second compound 0.1 µM, first compound 0.1 µM
[3] = second compound 0.316 µM, first compound 0.0316 µM
[4] = second compound 0.316 µM, first compound 0.1 µM
[5] = second compound 1 µM, first compound 0.0316 µM
[6] = second compound 1 µM, first compound 0.1 µM
[7] = second compound 3.16 µM, first compound 0.0316 µM
[8] = second compound 3.16 µM, first compound 0.1 µM
[9] = second compound 10 µM, first compound 0.0316 µM
[10] = second compound 10 µM, first compound 0.1 µM
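Also: spheroids exposed to compounds for seven days before readout.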
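For viability, T/C in this document: T/C percent relative to DMSO vehicle wells set as 100% viability.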

C=CC(=O)N1CCN(c2nc(=O)n(-c3c(C)ccnc3C(C)C)c3nc(-c4c(O)cccc4F)c(F)cc23)C(C)C1 (stereo not given) + CC(C)NCC(C(=O)N1CCN(c2ncnc3c2C(C)CC3O)CC1)c1ccc(Cl)cc1
> 7.50: pIC50 (second compound 3.16 µM) | pIC50 (second compound 10 µM)
inactive: viability, T/C [1] 87.5% | viability, T/C [2] 86.1% | viability, T/C (second compound 0.1 µM, first compound 0.316 µM) 92.7% | viability, T/C (second compound 0.1 µM, first compound 1 µM) 91.1% | viability, T/C (second compound 0.1 µM, first compound 3.16 µM) 90.6% | viability, T/C (second compound 0.1 µM, first compound 10 µM) 54.3% | viability, T/C [3] 64.5% | viability, T/C [4] 67.1% | viability, T/C (second compound 0.316 µM, first compound 0.316 µM) 62.6% | viability, T/C (second compound 0.316 µM, first compound 1 µM) 71.6% | viability, T/C (second compound 0.316 µM, first compound 3.16 µM) 73.5% | viability, T/C (second compound 0.316 µM, first compound 10 µM) 46.4% | viability, T/C [5] 54.9% | viability, T/C [6] 56.5% | viability, T/C (second compound 1 µM, first compound 0.316 µM) 58% | viability, T/C (second compound 1 µM, first compound 1 µM) 54.4% | viability, T/C (second compound 1 µM, first compound 3.16 µM) 50.8% | viability, T/C (second compound 1 µM, first compound 10 µM) 34.5% | viability, T/C [7] 44.5% | viability, T/C [8] 52.9% | viability, T/C (second compound 3.16 µM, first compound 0.316 µM) 48.5% | viability, T/C (second compound 3.16 µM, first compound 1 µM) 47% | viability, T/C (second compound 3.16 µM, first compound 3.16 µM) 45.6% | viability, T/C (second compound 3.16 µM, first compound 10 µM) 30.7% | viability, T/C [9] 40% | viability, T/C [10] 39% | viability, T/C (second compound 10 µM, first compound 0.316 µM) 40.9% | viability, T/C (second compound 10 µM, first compound 1 µM) 42.7% | viability, T/C (second compound 10 µM, first compound 3.16 µM) 38.1% | viability, T/C (second compound 10 µM, first compound 10 µM) 22.5%
5.48: pIC50 (second compound 1 µM)
< 5.00: pIC50 (second compound 0.1 µM) | pIC50 (second compound 0.316 µM)

CC(C)(C)c1cnc(CSc2cnc(NC(=O)C3CCNCC3)s2)o1 + CC(C)NCC(C(=O)N1CCN(c2ncnc3c2C(C)CC3O)CC1)c1ccc(Cl)cc1
> 8.02: pIC50 (second compound 3.16 µM) | pIC50 (second compound 10 µM)
inactive: viability, T/C (second compound 0.1 µM, first compound 0.00949 µM) 78.5% | viability, T/C (second compound 0.1 µM, first compound 0.03 µM) 74% | viability, T/C (second compound 0.1 µM, first compound 0.0949 µM) 43.3% | viability, T/C (second compound 0.316 µM, first compound 0.00949 µM) 61.5% | viability, T/C (second compound 0.316 µM, first compound 0.03 µM) 51.2% | viability, T/C (second compound 0.316 µM, first compound 0.0949 µM) 30.8% | viability, T/C (second compound 1 µM, first compound 0.00949 µM) 52% | viability, T/C (second compound 1 µM, first compound 0.03 µM) 47.5% | viability, T/C (second compound 1 µM, first compound 0.0949 µM) 24.2% | viability, T/C (second compound 3.16 µM, first compound 0.00949 µM) 44.7% | viability, T/C (second compound 3.16 µM, first compound 0.03 µM) 37.4% | viability, T/C (second compound 3.16 µM, first compound 0.0949 µM) 15.4% | viability, T/C (second compound 10 µM, first compound 0.00949 µM) 35.1% | viability, T/C (second compound 10 µM, first compound 0.03 µM) 31.5% | viability, T/C (second compound 10 µM, first compound 0.0949 µM) 28.2%
7.43: pIC50 (second compound 0.316 µM)
active: viability, T/C (second compound 0.1 µM, first compound 0.3 µM) 0.48% | viability, T/C (second compound 0.1 µM, first compound 0.949 µM) 0.41% | viability, T/C (second compound 0.1 µM, first compound 3 µM) 0.23% | viability, T/C (second compound 0.316 µM, first compound 0.3 µM) 0.34% | viability, T/C (second compound 0.316 µM, first compound 0.949 µM) 0.3% | viability, T/C (second compound 0.316 µM, first compound 3 µM) 0.29% | viability, T/C (second compound 1 µM, first compound 0.3 µM) 0.43% | viability, T/C (second compound 1 µM, first compound 0.949 µM) 0.34% | viability, T/C (second compound 1 µM, first compound 3 µM) 0.31% | viability, T/C (second compound 3.16 µM, first compound 0.3 µM) 0.55% | viability, T/C (second compound 3.16 µM, first compound 0.949 µM) 1.3% | viability, T/C (second compound 3.16 µM, first compound 3 µM) 0.69% | viability, T/C (second compound 10 µM, first compound 0.3 µM) 1.21% | viability, T/C (second compound 10 µM, first compound 0.949 µM) 0.81% | viability, T/C (second compound 10 µM, first compound 3 µM) 0.34%
7.81: pIC50 (second compound 1 µM)
7.13: pIC50 (second compound 0.1 µM)

Cn1ncnc1[C@H]1c2n[nH]c(=O)c3cc(F)cc(c23)N[C@@H]1c1ccc(F)cc1 + CC(C)NCC(C(=O)N1CCN(c2ncnc3c2C(C)CC3O)CC1)c1ccc(Cl)cc1
> 9.50: pIC50 (second compound 3.16 µM) | pIC50 (second compound 10 µM)
inactive: viability, T/C (second compound 0.1 µM, first compound 0.000316 µM) 91.9% | viability, T/C (second compound 0.1 µM, first compound 0.001 µM) 79.1% | viability, T/C (second compound 0.1 µM, first compound 0.00316 µM) 79.2% | viability, T/C (second compound 0.1 µM, first compound 0.01 µM) 91.9% | viability, T/C [1] 68.6% | viability, T/C [2] 73.4% | viability, T/C (second compound 0.316 µM, first compound 0.000316 µM) 73.5% | viability, T/C (second compound 0.316 µM, first compound 0.001 µM) 67.9% | viability, T/C (second compound 0.316 µM, first compound 0.00316 µM) 59.8% | viability, T/C (second compound 0.316 µM, first compound 0.01 µM) 65.7% | viability, T/C [3] 63.6% | viability, T/C [4] 58.3% | viability, T/C (second compound 1 µM, first compound 0.000316 µM) 60.1% | viability, T/C (second compound 1 µM, first compound 0.001 µM) 51.4% | viability, T/C (second compound 1 µM, first compound 0.00316 µM) 51% | viability, T/C (second compound 1 µM, first compound 0.01 µM) 53.5% | viability, T/C [5] 60.3% | viability, T/C [6] 51.9% | viability, T/C (second compound 3.16 µM, first compound 0.000316 µM) 47% | viability, T/C (second compound 3.16 µM, first compound 0.001 µM) 40.3% | viability, T/C (second compound 3.16 µM, first compound 0.00316 µM) 45.9% | viability, T/C (second compound 3.16 µM, first compound 0.01 µM) 42.9% | viability, T/C [7] 49.5% | viability, T/C [8] 46.1% | viability, T/C (second compound 10 µM, first compound 0.000316 µM) 42.8% | viability, T/C (second compound 10 µM, first compound 0.001 µM) 44.4% | viability, T/C (second compound 10 µM, first compound 0.00316 µM) 37.7% | viability, T/C (second compound 10 µM, first compound 0.01 µM) 45.9% | viability, T/C [9] 38% | viability, T/C [10] 37.2%
< 7.00: pIC50 (second compound 0.1 µM) | pIC50 (second compound 0.316 µM) | pIC50 (second compound 1 µM)
